Laboratory results published in ChEMBL document CHEMBL3045914, “Response of dry bean to pre-plant incorporated and pre-emergence applications of S-metolachlor and fomesafen” (Crop Prot, 2009).

Legend:
Type in all cases: organism-based
Phaseolus vulgaris [1] = assay: Toxicity in Phaseolus vulgaris (dry bean)assessed as visible injury on leaves at 280 to 560 g a.i. ha'-1 after 7 days; details: in vivo, 168 h
Phaseolus vulgaris [2] = assay: Toxicity in Phaseolus vulgaris (black dry bean) assessed as visible injury on leaves at 2 times recommended dose treated at pre-emergence application after 14 days; details: in vivo, other, 336 h
Phaseolus vulgaris [3] = assay: Toxicity in Phaseolus vulgaris (white dry bean) assessed as visible injury on leaves at recommended dose treated at pre-emergence application after 14 days; details: in vivo, other, 336 h
Phaseolus vulgaris [4] = assay: Toxicity in Phaseolus vulgaris (kidney dry bean) assessed as visible injury on leaves at recommended dose treated at pre-emergence application after 14 days; details: in vivo, other, 336 h
Phaseolus vulgaris [5] = assay: Toxicity in Phaseolus vulgaris (cranberry dry bean) assessed as visible injury on leaves at recommended dose treated at pre-emergence application after 14 days; details: in vivo, other, 336 h
Phaseolus vulgaris [6] = assay: Toxicity in Phaseolus vulgaris (black dry bean) assessed as visible injury on leaves at recommended dose treated at pre-emergence application after 14 days; details: in vivo, other, 336 h
Phaseolus vulgaris [7] = assay: Toxicity in Phaseolus vulgaris (white dry bean) assessed as visible injury on leaves at 2 times recommended dose treated at pre-plant incorporated application after 14 days; details: in vivo, other, 336 h
Phaseolus vulgaris [8] = assay: Toxicity in Phaseolus vulgaris (kidney dry bean) assessed as visible injury on leaves at 2 times recommended dose treated at pre-plant incorporated application after 14 days; details: in vivo, other, 336 h
Phaseolus vulgaris [9] = assay: Toxicity in Phaseolus vulgaris (cranberry dry bean) assessed as visible injury on leaves at 2 times recommended dose treated at pre-plant incorporated application after 14 days; details: in vivo, other, 336 h
Phaseolus vulgaris [10] = assay: Toxicity in Phaseolus vulgaris (black dry bean) assessed as visible injury on leaves at 2 times recommended dose treated at pre-plant incorporated application after 14 days; details: in vivo, other, 336 h
Phaseolus vulgaris [11] = assay: Toxicity in Phaseolus vulgaris (white dry bean) assessed as visible injury on leaves at recommended dose treated at pre-plant incorporated application after 14 days; details: in vivo, other, 336 h
Phaseolus vulgaris [12] = assay: Toxicity in Phaseolus vulgaris (white dry bean) assessed as visible injury on leaves at 2 times recommended dose treated at pre-emergence application after 14 days; details: in vivo, other, 336 h
Phaseolus vulgaris [13] = assay: Toxicity in Phaseolus vulgaris (kidney dry bean) assessed as visible injury on leaves at 2 times recommended dose treated at pre-emergence application after 14 days; details: in vivo, other, 336 h
Phaseolus vulgaris [14] = assay: Toxicity in Phaseolus vulgaris (cranberry dry bean) assessed as visible injury on leaves at 2 times recommended dose treated at pre-emergence application after 14 days; details: in vivo, other, 336 h
Phaseolus vulgaris [15] = assay: Toxicity in Phaseolus vulgaris (kidney dry bean) assessed as visible injury on leaves at recommended dose treated at pre-plant incorporated application after 14 days; details: in vivo, other, 336 h
Phaseolus vulgaris [16] = assay: Toxicity in Phaseolus vulgaris (cranberry dry bean) assessed as visible injury on leaves at recommended dose treated at pre-plant incorporated application after 14 days; details: in vivo, other, 336 h
Phaseolus vulgaris [17] = assay: Toxicity in Phaseolus vulgaris (dry bean) assessed as yield at 280 to 560 g a.i. ha'-1; details: in vivo
Phaseolus vulgaris [18] = assay: Toxicity in Phaseolus vulgaris (black dry bean) assessed as visible injury on leaves at recommended dose treated at pre-plant incorporated application after 14 days; details: in vivo, other, 336 h
Phaseolus vulgaris [19] = assay: Toxicity in Phaseolus vulgaris (dry bean) assessed as shoot dry weight per row at 280 to 560 g a.i. ha'-1; details: in vivo
Phaseolus vulgaris [20] = assay: Toxicity in Phaseolus vulgaris (dry bean) assessed as plant height at 280 to 560 g a.i. ha'-1; details: in vivo
Phaseolus vulgaris [21] = assay: Toxicity in Phaseolus vulgaris (dry bean) assessed as visible injury on leaves at 280 to 560 g a.i. ha'-1 after 28 days; details: in vivo, 672 h
Phaseolus vulgaris [22] = assay: Toxicity in Phaseolus vulgaris (dry bean)assessed as visible injury on leaves at 280 to 560 g a.i. ha'-1 after 14 days; details: in vivo, 336 h
Phaseolus vulgaris [23] = assay: Toxicity in Phaseolus vulgaris (dry bean) assessed as yield at 1373 to 2746 g a.i. ha'-1; details: in vivo
Phaseolus vulgaris [24] = assay: Toxicity in Phaseolus vulgaris (dry bean) assessed as shoot dry weight per row at 1373 to 2746 g a.i. ha'-1; details: in vivo
Phaseolus vulgaris [25] = assay: Toxicity in Phaseolus vulgaris (dry bean) assessed as plant height at 1373 to 2746 g a.i. ha'-1; details: in vivo
Phaseolus vulgaris [26] = assay: Toxicity in Phaseolus vulgaris (dry bean) assessed as visible injury on leaves at 1373 to 2746 g a.i. ha'-1 after 28 days; details: in vivo, 672 h
Phaseolus vulgaris [27] = assay: Toxicity in Phaseolus vulgaris (dry bean) assessed as visible injury on leaves at 1373 to 2746 g a.i. ha'-1 after 14 days; details: in vivo, 336 h
Phaseolus vulgaris [28] = assay: Toxicity in Phaseolus vulgaris (dry bean) assessed as visible injury on leaves at 1373 to 2746 g a.i. ha'-1 after 7 days; details: in vivo, 168 h

SMILES	Activity (Phaseolus vulgaris [2]) [%]	Activity (Phaseolus vulgaris [3]) [%]	Activity (Phaseolus vulgaris [4]) [%]	Activity (Phaseolus vulgaris [5]) [%]	Activity (Phaseolus vulgaris [6]) [%]	Activity (Phaseolus vulgaris [7]) [%]	Activity (Phaseolus vulgaris [8]) [%]	Activity (Phaseolus vulgaris [9]) [%]	Activity (Phaseolus vulgaris [10]) [%]	Activity (Phaseolus vulgaris [11]) [%]	Activity (Phaseolus vulgaris [12]) [%]	Activity (Phaseolus vulgaris [13]) [%]	Activity (Phaseolus vulgaris [14]) [%]	Activity (Phaseolus vulgaris [15]) [%]	Activity (Phaseolus vulgaris [16]) [%]	Activity (Phaseolus vulgaris [18]) [%]	further results
CS(=O)(=O)NC(=O)c1cc(Oc2ccc(C(F)(F)F)cc2Cl)ccc1[N+](=O)[O-] [FOMESAFEN]	1.2	0.1	0	0	1	0.2	0.2	0	0.5	0.5	0.4	0.2	0	0.3	0.1	0.8	Activity (Phaseolus vulgaris [1]): 0.2%; Crop_yield (Phaseolus vulgaris [17]): 2.4 tons/ha; Activity (Phaseolus vulgaris [19]): 40 g; Activity (Phaseolus vulgaris [20]): 49 cm; Activity (Phaseolus vulgaris [21]): 0%; Activity (Phaseolus vulgaris [22]): 0.2%
CCc1cccc(C)c1N(C(=O)CCl)[C@@H](C)COC [S-METOLACHLOR]	5.5	4.2	0	0	3.4	1.6	0.7	0.2	0.7	0.5	6.6	0.1	0.1	0.1	0.1	0.9	Crop_yield (Phaseolus vulgaris [23]): 2.4 tons/ha; Activity (Phaseolus vulgaris [24]): 39 g; Activity (Phaseolus vulgaris [25]): 49 cm; Activity (Phaseolus vulgaris [26]): 0.2%; Activity (Phaseolus vulgaris [27]): 1%; Activity (Phaseolus vulgaris [28]): 0.7%
